# Results reported in patent US20260071179A1, “PRODUCTION METHOD OF NERVE CELLS DAMAGED BY OXIDATIVE STRESS AND APPLICATIONS THEREOF” (FUJIFILM Corporation, priority 2023, published 2026).
# Tested on: iCell motor neurons
# Assay: Evaluation of necroptosis inhibitor for oxidative stress-induced neuronal damage (neurite length, IncuCyte S3 Neurotrack)
# Format: cell-based, human
# Settings: iCell motor neurons in −AO culture medium (Stress(+)), 4.7×10^4 cells/cm^2, compound 0.01 to 20 μM, FIG. 14
# Protocol: (§1) A solution obtained by diluting iMatrix-511 silk (Matrixome, 892021) 16.7 times with PBS was added to a 96-well plate (Corning, 356461) coated with PDL at 70 μL/well, and incubated at 37° C. for 3 hours to 72 hours.
# (§2) As a culture medium containing an antioxidant, a culture medium (Stress(−)) in which DMSO was added to a +AO culture medium to a final concentration of 0.1% by volume (v/v) was used, as a culture medium not containing an antioxidant, a culture medium (Stress(+)) in which DMSO was added to a −AO culture medium to a final concentration of 0.1% by volume (v/v), and as the culture medium of the drug evaluation group, a culture medium in which a DMSO-dissolved compound was added to the −AO culture medium to a concentration of 0.1% by volume (v/v) (0.01 to 20 μM) was used.
# Frozen cells (iCell motor neurons, FCDI, C1048) were thawed in a warm bath at 37° C. After melting, the cells were added to a culture medium and centrifuged at 600×g at room temperature for 5 minutes. After centrifugation, the supernatant was removed, the cells were suspended in 1 mL of the culture medium, and the number of cells was counted. Thereafter, the cells were diluted with a culture medium, seeded at 200 μL/well (4.7×10^4 cells/cm^2), and cultured under the conditions of 37° C. and 5% CO2. […]
# (§3) The neurite length was quantified using the Neurotrack software (Sartorius, 9600-0010) of IncuCyte S3.
row,Structure (SMILES),reduction in the sum of the neurite lengths
1,CN1C(=O)C(Cc2c[nH]c3ccccc23)NC1=S (stereo not shown) [Necrostatin-1],suppressed in a concentration-dependent manner

# Tested on: nerve cells (considered to be cortical excitatory neurons) produced by forcibly expressing the Ngn2 genes from the iPS cells
# Assay: Evaluation of compound for oxidative stress-induced neuronal damage (neurite length, IncuCyte S3 Neurotrack)
# Format: cell-based, human
# Settings: same method as in Test Example 7, −AO culture medium (Stress(+)), FIG. 19
# Protocol: as §1
# as §2, with “(0.004” for “(0.01”
# The nerve cells (considered to be cortical excitatory neurons) produced by forcibly expressing the Ngn2 genes from the iPS cells was thawed in a warm bath at 37° C. […] After centrifugation, the supernatant was removed, the cells were suspended in 1 mL of the culture medium, and the number of cells was counted. […]
# as §3
# The effect of edaravone, which was used as a therapeutic drug for ALS, on oxidative stress-induced neuronal damage was evaluated by the same method as in Test Example 7. […]
row,Structure (SMILES),reduction in the sum of the neurite lengths
1,CC1=NN(c2ccccc2)C(=O)C1 [edaravone],suppressed in a concentration-dependent manner

# Tested on: iCell motor neurons
# Assay: Compound screening using oxidative stress-induced neuronal damage evaluation system (AUC of neurite length over 14 days)
# Format: cell-based, human
# Settings: iCell motor neurons in −AO culture medium (Stress(+)), 4.7×10^4 cells/cm^2, StemSelect Library compounds, FIG. 18
# Protocol: as §1
# as §2, with “As the compound library, StemSelect Library compounds (Merck, 569774) were used. As” for “As”, “(v/v)” for “(v/v) (0.01 to 20 μM)”
# Frozen cells (iCell motor neurons, FCDI, C1048) were thawed in a warm bath at 37° C. After melting, the cells were added to a culture medium and centrifuged at 600×g at room temperature for 5 minutes. After centrifugation, the supernatant was removed, the cells were suspended in 1 mL of the culture medium, and the number of cells was counted. Thereafter, the cells were diluted with a culture medium, seeded at 200 μL/well (4.7×10^4 cells/cm^2), and cultured under the conditions of 37° C. and 5% CO2. After culturing, images were acquired by imaging with IncuCyte S3 (Sartorius, Incucyte S3) every 6 hours.
# The neurite length was quantified using the Neurotrack software (Sartorius, 9600-0010) of IncuCyte S3. The area under the curve (AUC) of the curve of the neurite length over time for 14 days was calculated, and the effects of the drug were compared. […] The AUC of the nerve cells (Stress(+) group) (▴) cultured in the culture medium not containing an antioxidant was reduced as compared with the nerve cells (Stress(−) group) (▪) cultured in the culture medium containing an antioxidant.
row,Structure (SMILES),reduction in AUC of the curve of the neurite length over time for 14 days
1,N=C(N)SCCc1ccc(OCc2ccc([N+](=O)[O-])cc2)cc1 [KB-R7943],strongly suppressed
2,C=CC(C)(C)c1cc(/C=C/C(=O)c2ccc(O)cc2)c(OC)cc1O [Licochalcone-A],strongly suppressed
3,c1ccc2c(Oc3nc(Nc4ccc(N5CCOCC5)cc4)c4ncn(C5CCCCC5)c4n3)cccc2c1 [Purmorphamine],strongly suppressed
4,CCCC(=O)OCc1ccc(OC(=O)/C=C(C)/C=C/C=C(C)/C=C/C2=C(C)CCCC2(C)C)cc1 [ATRA-BA Hybrid],strongly suppressed
5,c1nc2nc(Nc3ccc(N4CCOCC4)cc3)nc(NC3CCCCC3)c2[nH]1 [Reversine],strongly suppressed
6,O=C(O)c1ccc2cc(-c3ccc(O)c(C45CC6CC(CC(C6)C4)C5)c3)ccc2c1 [CD437/AHPN],strongly suppressed
7,C[C@H](NC(=O)Cc1cc(F)cc(F)c1)C(=O)N[C@H]1N=C(c2ccccc2)c2ccccc2N(C)C1=O [γ-Secretase Inhibitor XXI],strongly suppressed
8,O=C(Nc1cccc(NC(=O)c2cccc(O)c2O)c1)c1cccc(O)c1O [Telomerase Inhibitor IX],strongly suppressed
9,Clc1ccccc1CNCC1CCC(CNCc2ccccc2Cl)CC1 (stereo not shown) [AY 9944],strongly suppressed
10,CC#C[C@]1(O)CC[C@H]2[C@@H]3CCC4=CC(=O)CCC4=C3[C@@H](c3ccc(N(C)C)cc3)C[C@@]21C [Mifepristone],strongly suppressed
11,CC[C@H](C)C(=O)O[C@H]1CCC=C2C=C[C@H](C)[C@H](CC[C@@H]3C[C@@H](O)CC(=O)O3)[C@H]21 [Mevastatin],strongly suppressed
